Counter-ions that a name gives are not always drawn.
Test system: SARS-CoV-2
Test: microbe, parasite or virus in culture
Conditions: Severe acute respiratory syndrome coronavirus 2, Vero C1008, 48 h

SMILES	IC50 [µM]	IC50 (read-out: pIC50 (converted)) [µM]
C[C@@H]1[C@@H]2Cc3ccc(O)cc3C1(C)CCN2C	> 20	> 20
NC(=O)c1ncn([C@@H]2O[C@H](CO)[C@@H](O)[C@H]2O)c1N [ACADESINE]	> 20	> 20
Cc1cnc(N2CC3(CCOCC3)C2)c(C(=O)Nc2ccc(C(=O)N3CCc4cc(C(=O)Nc5c(C)cccc5F)sc4-c4ccccc43)cc2)c1 [PC-786]	> 20	> 20
CN1CCC(=C2c3ccccc3Oc3ncccc32)CC1 [AZANATOR]	> 20	> 20
N[C@@H]1[C@H]2CN(c3nc4c(cc3F)c(=O)c(C(=O)O)cn4-c3ccc(F)cc3F)C[C@@H]12 [TROVAFLOXACIN]	> 20	> 20
c1ccc2sc(SSc3nc4ccccc4s3)nc2c1 [BENZOTHIAZYL DISULFIDE]	> 20	> 20
COc1cc2c(cc1Cc1cccc(Cl)c1F)c(=O)c(C(=O)O)cn2[C@@H](CO)C(C)C	> 20	> 20
CC(C)C[C@H](NC(=O)[C@H](CCc1ccccc1)NC(=O)CN1CCOCC1)C(=O)N[C@@H](Cc1ccccc1)C(=O)N[C@@H](CC(C)C)C(=O)[C@@]1(C)CO1 [CARFILZOMIB]	> 20	> 20
O=C(CN1C(=O)c2ccccc2S1(=O)=O)Nc1ccc(O)cc1	> 20	> 20
Oc1cc(O)c2c(c1)OC(c1ccc(O)c(O)c1)C(O)C2 (stereo unspecified) [CATECHIN]	> 20	> 20
CN[C@H]1CCN(c2cc(NCC3CC3)nc(N)n2)C1	> 20	> 20
CCN(CC)CCN(CC)CC(=O)Nc1ccccc1Cl [CLODACAINE]	> 20	> 20
CCCSc1nc(N[C@@H]2C[C@H]2c2ccc(F)c(F)c2)c2nnn([C@@H]3C[C@H](OCCO)[C@@H](O)[C@H]3O)c2n1 [TICAGRELOR]	> 20	> 20
CN(C)CCCOC1CC(C)(C)N(C)C(C)(C)C1 [PEMERID]	> 20	> 20
O=C(Cc1ccc(-c2ccc(OCCN3CCOCC3)cc2)cn1)NCc1ccccc1 [TIRBANIBULIN]	> 20	> 20
CC(=O)OC1C=C2CCC3C(CCC4(C)C(OC(C)=O)CCC34)C2(C)CC1 (stereo unspecified)	> 20	> 20
CCOC(=O)Nc1ccc(SC[C@H]2CO[C@](Cn3ccnc3)(c3ccc(OC)cc3)O2)cc1	> 20	> 20
CCOC(=O)C1(c2ccccc2)CCN(CCC(O)c2ccccc2)CC1 (stereo unspecified) [PHENOPERIDINE]	> 20	> 20
Cc1ccc(S(=O)(=O)NC(=O)NN2CCCCCC2)cc1 [TOLAZAMIDE]	> 20	> 20

SMILES	IC50 [µM]	IC50 (read-out: pIC50 (converted)) [µM]
[O-][S+](c1cc(Cl)cc(Cl)c1O)c1cc(Cl)cc(Cl)c1O [BITHIONOLOXIDE]	> 20	> 20
CCn1c(=O)c2ccccc2n(-c2cccc([N+](=O)[O-])c2)c1=O [NITRAQUAZONE]	> 20	> 20
O=C1Nc2ccc(I)cc2/C1=C/c1cc(Br)c(O)c(Br)c1	> 20	> 20
O=c1ccc2ccccc2o1 [COUMARIN]	> 20	> 20
CCn1cc(C(=O)O)c(=O)c2cc(F)c(N3CCNCC3)cc21 [NORFLOXACIN]	> 20	> 20
C/N=C(/Cc1ccc2ccccc2c1)NC [NAPACTADINE]	> 20	> 20
O=C(Nc1ccc(Br)cc1)c1cc(Br)cc(Br)c1O [TRIBROMSALAN]	> 20	> 20
NS(=O)(=O)c1cc(C(=O)O)c(NCc2ccco2)cc1Cl [FUROSEMIDE]	> 20	> 20
C[N+]1(C)CCOC(O)(c2ccc(-c3ccc(C4(O)C[N+](C)(C)CCO4)cc3)cc2)C1 (stereo unspecified) [HEMICHOLINIUM-3]	> 20	> 20
CCC(C)(C)c1ccc(CC(C)CN2C[C@@H](C)O[C@@H](C)C2)cc1 (stereo partly specified) [AMOROLFINE]	> 20	> 20
O=C1CN=C(c2ccccn2)c2cc(Br)ccc2N1 [BROMAZEPAM]	> 20	> 20
C1CCC(C(CC2CCCCN2)C2CCCCC2)CC1 (stereo unspecified) [PERHEXILINE MALEATE]	> 20	> 20
COc1cc2c(cc1OC)C1Cc3ccc(OC)c(OC)c3CN1CC2 (stereo unspecified)	> 20	> 20
CC(=O)N[C@H]1[C@H]([C@H](O)[C@H](O)CO)OC(C(=O)O)=C[C@@H]1NC(=N)N [ZANAMIVIR]	> 20	> 20
CC(=O)O[C@H]1CC[C@@]2(C)C(=CC[C@@H]3[C@@H]2CC[C@]2(C)C(=O)CC[C@@H]32)C1 [DEHYDROEPIANDROSTERONE ACETATE]	> 20	> 20
CCC1(c2ccccc2)C(=O)NCNC1=O [PRIMIDONE]	> 20	> 20
CC1(C)CNc2cc(NC(=O)c3cccnc3NCc3ccncc3)ccc21 [MOTESANIB]	> 20	> 20
[2H]C1([2H])[C@H]2C[C@@H]([C@@H]1Oc1ccc(C(F)(F)F)cn1)N(C(=O)c1cccc(F)c1-c1ncccn1)C2([2H])[2H]	> 20	> 20
CC(C)(CO)C(O)C(=O)NCCCC(=O)O (stereo unspecified)	> 20	> 20
